US20240417404A1, “CRYSTALLINE FORMS OF N-[4-[4-(4-MORPHOLINYL)-7H-PYRROLO[2,3-d]PYRIMIDIN-6-YL]PHENYL]-4-[[3(R)-[(1-OXO-2-PROPEN-1-YL)AMINO]-1-[sequence]]METHYL]-2-PYRIDINECARBOXAMIDE AS IRREVERSIBLE INHIBITORS OF MENIN-MLL INTERACTION” (BIOMEA FUSION, INC., priority 2023, published 2024)
Converted amounts (≈) assume the structure as drawn.

Legend:
physchem = conditions: pH 4.5, aqueous buffer, observed aqueous solubility
[1] = Solid form stability (XRPD after storage, conversion in MeOH/water, thermal); type: physicochemical
Procedure: X-ray powder diffraction patterns were collected on a Bruker AXS C2 GADDS or Bruker AXS D8 diffractometer.
X-ray Powder Diffraction patterns were collected on a Bruker AXS C2 GADDS diffractometer using Cu Kα radiation (40 kV, 40 mA), automated XYZ stage, laser video microscope for auto-sample positioning, and a HiStar 2-dimensional area detector. X-ray optics consists of a single Göbel multilayer mirror coupled with a pinhole collimator of 0.3 mm. A weekly performance check is carried out using a certified standard NIST 1976 Corundum (flat plate). The beam divergence (i.e., the effective size of the X-ray beam on the sample) was approximately 4 mm. A θ-θ continuous scan mode was employed with a sample—detector distance of 20 cm which gives an effective 2θ range of 3.2°-29.7°. Typically the sample would be exposed to the X-ray beam for 120 seconds. The software used for data collection was GADDS for WNT 4.1.16 and the data were analyzed and presented using Diffrac Plus EVA v11.0.0.2 or v13.0.0.2.
X-ray Powder Diffraction patterns were collected on a Bruker D8 diffractometer using Cu Kα radiation (40 kV, 40 mA), θ-2θ goniometer, and divergence of V4 and receiving slits, a Ge monochromator and a Lynxeye detector. The instrument is performance checked using a certified Corundum standard (NIST 1976). The software used for data collection was Diffrac Plus XRD Commander v2.5.0 and the data were analysed and presented using Diffrac Plus EVA v11.0.0.2 or v13.0.0.2. Samples were run under ambient conditions as flat plate specimens using powder as received. The sample was gently packed into a cavity cut into a polished, zero-background (510) silicon wafer. The sample was rotated via its own plane during analysis. The details of the data collection are: • Angular range: 2 to 42 02θ • Step size: 0.05 02θ • Collection time: 0.5 s/step

[2] = Hygroscopicity (water absorption versus relative humidity); type: physicochemical; conditions: from 40% RH to 70% RH at 25° C.
[3] = Solubility of Compound A crystalline forms in aqueous buffers and biorelevant media; conditions: aqueous buffer, solubility, water, pH 4.5 acetate buffer, pH 6.8 phosphate buffer, pH 5.0 FeSSIF-v1 and pH 6.5 FaSSIF-v1

Structure (SMILES): C=CC(=O)N[C@@H]1CCCN(Cc2ccnc(C(=O)Nc3ccc(-c4cc5c(N6CCOCC6)ncnc5[nH]4)cc3)c2)C1 [Form K, N-[4-[4-(4-morpholinyl)-7H-pyrrolo[2,3-d]pyrimidin-6-yl]phenyl]-4-[[3(R)-[(1-oxo-2-propen-1-yl)amino]-1-piperidinyl]methyl]-2-pyridinecarboxamide]
- solubility (physchem): ~4 µg/mL (≈ 7.06 µM)
- XRPD pattern post storage ([1]; closed container at 60° C. and 75% RH for at least a week): substantially the same X-ray powder diffraction (XRPD) pattern
- XRPD pattern post storage ([1]; open container at 25° C. and 92% RH for at least a week): substantially the same X-ray powder diffraction (XRPD) pattern
- XRPD pattern post storage ([1]; open container at 40° C. and 75% RH for at least a week): substantially the same X-ray powder diffraction (XRPD) pattern
- Stability ([1]; polymorph stability, K converted into Pattern D in MeOH/water mixture (water activity from 0 to 1), listed as K): Low-Converted into
- Stability (thermal) ([1]; thermal): But thermally very stable
- observed hygroscopicity and absorption of water [2]: about 2.1%
- solubility [3]: < 35 µg/mL
